In PubChem BioAssay (NCI):
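Test compounds were applied to cells in 96-well plates for 48 hours at 5 doses. GI50: concentration for 50% inhibition of growth. TGI denotes the concentration required for complete inhibition of growth.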

Columns and labels:
Experiment in all cases: NCI-60 cell line screen, 48 h
A549 NSCLC = tested on: A549 NSCLC
CCRF-CEM leukemia = tested on: CCRF-CEM leukemia
IGROV1 ovarian = tested on: IGROV1 ovarian
NCI-H23 lung = tested on: NCI-H23 lung
NCI-H460 lung = tested on: NCI-H460 lung
NCI/ADR-RES ovarian = tested on: NCI/ADR-RES ovarian
OVCAR-3 ovarian = tested on: OVCAR-3 ovarian
OVCAR-5 ovarian = tested on: OVCAR-5 ovarian
SK-OV-3 ovarian = tested on: SK-OV-3 ovarian
SR leukemia = tested on: SR leukemia

| Compound | GI50 (A549 NSCLC) [nM] | TGI (A549 NSCLC) [µM] | GI50 (CCRF-CEM leukemia) [nM] | TGI (CCRF-CEM leukemia) [µM] | GI50 (IGROV1 ovarian) [nM] | TGI (IGROV1 ovarian) [µM] | GI50 (NCI-H23 lung) [nM] | TGI (NCI-H23 lung) [µM] | GI50 (NCI-H460 lung) [nM] | TGI (NCI-H460 lung) [µM] | GI50 (NCI/ADR-RES ovarian) [nM] | TGI (NCI/ADR-RES ovarian) [µM] | GI50 (OVCAR-3 ovarian) [nM] | TGI (OVCAR-3 ovarian) [µM] | GI50 (OVCAR-5 ovarian) [nM] | TGI (OVCAR-5 ovarian) [µM] | GI50 (SK-OV-3 ovarian) [µM] | TGI (SK-OV-3 ovarian) [µM] | GI50 (SR leukemia) [nM] | TGI (SR leukemia) [µM] |
| --- | --- | --- | --- | --- | --- | --- | --- | --- | --- | --- | --- | --- | --- | --- | --- | --- | --- | --- | --- | --- |
| N#CC1=C(N)Oc2c(ccc3ccccc23)C1c1ccccc1Cl (stereo not given) | 476 | 26.7 | 269 | 17.2 | 455 | 15.4 | 474 | 17.3 | 335 | 1.34 | 133 | 5.62 | 197 | 0.493 | 545 | 18.8 | 0.628 | 43.3 | 107 | 22.1 |
| C#Cc1cccc(NC(=O)Nc2cccc(NC(=O)CCl)c2)c1 | > 82500 | > 82.5 | 10900 | 68.6 | 11600 | 26 | 14000 | 31.2 | 27300 | > 82.5 | 20100 | 75.7 | 14600 | 36.5 | 21900 | 63.9 | 46.5 | > 82.5 | 12900 | > 82.5 |
| CCN(CC)CCC(CNc1c2ccc(Cl)cc2nc2ccc(OC)cc12)c1ccccc1 (stereo not given) | 1510 | 3.49 | 1100 | 5.17 | 1210 | 5.11 | 1500 | 3.55 | 768 | 3.99 | 1280 | 5.12 | 1710 | 4.7 | 1940 | 5.64 | 1.64 | 3.5 | 323 | 1.18 |
| CC1SC(c2cccc(Oc3ccccc3)c2)N(CCc2cccs2)C1=O (stereo not given) | 864 | 3.67 | 747 | > 24 | 1070 | 3.33 | 718 | 3.55 | 1090 | 2.49 | 708 | 3.01 | 1080 | 2.3 | 1940 | 5.89 | 1.92 | 5.32 | 585 | 4.19 |
| COC(=O)[C@@H](C)C[C@H](Cc1ccccc1)NC(=O)c1cccc([C@@H](C[C@H](C(C)C)N(C)C(=O)[C@@H](NC(=O)[C@H]2CCCCN2C)C(C)C)OC(C)=O)n1 | 5.91 | > 16.7 | 2.03 | > 16.7 | < 1.67 | > 16.7 | 3.4 | > 16.7 | < 1.67 | > 16.7 | 152 | > 5.17 | < 1.67 | 0.00268 | 7.72 | > 16.7 | 0.00235 | > 16.7 | < 1.67 | > 16.7 |
| C=CC(=O)N1CC[C@@H](Oc2nc(Nc3ccc(N4CCC(N5CCN(C)CC5)CC4)cc3)c(C(N)=O)nc2CC)C1 | > 100000 | > 100 | > 100000 | > 100 | > 100000 | > 100 | > 100000 | > 100 | > 100000 | > 100 | > 100000 | > 100 | > 100000 | > 100 | > 100000 | > 100 | > 100 | > 100 | > 100000 | > 100 |
| CN(C)CCCn1c2c(c3ccc([N+](=O)[O-])cc3c1=O)C(=O)c1ccccc1-2 | 17500 | 46.1 | 3850 | 59 | 4980 | > 100 | 4950 | 24.2 | 2690 | 19.4 | 7220 | 34.5 | 25600 | 70.5 | 15300 | 49 | 28.1 | > 100 | 1980 | > 100 |
| C=C1C(=O)O[C@H]2[C@H]1CC/C(Cn1cc(CNC(=O)c3cc4ccccc4[nH]3)nn1)=C\CC[C@@]1(C)O[C@@H]21 | 22100 | 46.5 | 527 | 5.21 | 3240 | 10.6 | 14300 | 34.5 | 20100 | 41 | 69300 | > 100 | 2120 | 5.63 | 2510 | 9.07 | 50.4 | > 100 | 2690 | 25.7 |
| COc1cc2c(cc1Nc1nc(Nc3ccsc3C(N)=O)c3cc[nH]c3n1)N(C(=O)CN(C)C)CCC2 | 636 | 3.92 | 162 | 9.66 | 1790 | 8.36 | 343 | 8.55 | 498 | 3.21 | 4750 | > 25 | 618 | 2.13 | 109 | 3.66 | 1.18 | 4.89 | 12.3 | 3.44 |
| CCCCCCn1c(=N)n(CC(O)COc2cccc(C)c2)c2ccccc21 (stereo not given) | 3470 | 13.3 | 2360 | 7.14 | 2780 | 10.2 | 2890 | 11.5 | 1960 | 3.88 | 2820 | 8.89 | 2130 | 4.98 | 4010 | 15.1 | 3.38 | 9.32 | 1760 | 5.84 |
| Oc1c(Br)cc(Br)c2cccnc12 | 3620 | 54.6 | 2630 | 8.83 | 4180 | 51.4 | 3560 | 23.6 | 2940 | 10.7 | 2820 | > 100 | 3530 | 15.2 | 6210 | 49.5 | 3.99 | 21.1 | 3070 | 13.7 |
